Results: US8426387B2, “Treatments for cancer” (priority 2006, dated 2013)

B1: rMaspin(i): Purified recombinant maspin produced in baculovirus-infected Spodoptera frugiperda Sf9 insect cells (protein, UniProt P36952 1-375, looked up)
Serpin B5: MDALQLANSAFAVDLFKQLCEKEPLGNVLFSPICLSTSLSLAQVGAKGDTANEIGQVLHFENVKDVPFGFQTVTSDVNKLSSFYSLKLIKRLYVDKSLNLSTEFISSTKRPYAKELETVDFKDKLEETKGQINNSIKDLTDGHFENILADNSVNDQTKILVVNAAYFVGKWMKKFSESETKECPFRVNKTDTKPVQMMNMEATFCMGNIDSINCKIIELPFQNKHLSMFILLPKDVEDESTGLEKIEKQLNSESLSQWTNPSTMANAKVKLSIPKFKVEKMIDPKACLENLGLKHIFSEDTSDFSGMSETKGVALSNVIHKVCLEITEDGGDSIEVPGARILQHKDELNADHPFIYIIRHNKTRNIIFFGKFCSP
modifications: recombinant, Sf9 baculovirus-expressed
notes: Purified recombinant maspin produced in baculovirus-infected Spodoptera frugiperda Sf9 insect cells

Assays:
[1] = test system: a breast cancer cell line; settings: 1 mM boron
Protocol: (§1) The relationship between diet and cancer is an active area of investigation. […] Fruits and vegetables are known to be good sources of dietary boron. To explore a possible cellular mechanism for the effect of boron on prostate cancer 1 mM boric acid was added to several cancer cell lines; three human prostate, and for comparison, five human breast cell lines.

[2] = test system: DU-145 cell line; settings: 1 mM boron
Protocol: as §1

[3] = test system: DU-145 androgen receptor negative human prostate cell line
Protocol: as §1

[4] = test system: estrogen receptor negative human breast cancer cell lines; settings: 1 mM boric acid; two cell lines; MEM supplemented with 10% FBS and 25 mM HEPES
Protocol: as §1

[5] = test system: androgen receptor positive and receptor negative human prostate cancer cell lines; settings: 1 mM boric acid; RPMI1640 media
Protocol: as §1

[6] = test system: DU-145; settings: 1 mM boric acid
Protocol: as §1

[7] = test system: estrogen receptor positive cell lines; test: cells
Protocol: as §1

[8] = molecular target: T1, DU145 cell surface-bound uPA (Homo sapiens, UniProt P00749); settings: DU145 cells; read-out: Ki value in cell surface-mediated plasminogen activation; cited from earlier work
T1 construct: endogenous in cells; host or cells: DU145 prostate carcinoma cells

Molecule	apoptosis or necrosis [1]	apoptosis or necrosis [2]	growth ([3]; 1 mM boric acid, supplemented RPMI media)	reversibility of growth inhibition ([3]; boric acid removed on Day 3, cell growth resumed by Day 6)	growth inhibition [4]	growth response [5]	cell cycle block or apoptosis [6]	growth inhibition ([7]; 1 mM boric acid, two estrogen receptor positive cell lines, MEM media or RPMI1640, supplemented)	inhibition at 1000 µM ([7]; Homo sapiens, 216 h, read-out: inhibition in growth)	apoptosis by flow cytometry ([7]; third estrogen receptor positive breast cancer cell line, preliminary results)	Ki [8]
OB(O)O [boric acid]	does not induce apoptosis or necrosis	does not induce apoptosis or necrosis	completely arrested	reversible	did not show growth inhibition	failed to show a response	does not block the cell cycle or induce apoptosis	failed to exhibit growth inhibition	20%	may be inducing apoptosis	
B1											20 nM
